Experimental data published in patent US11504268B2, “Wound treatment system” (Ethicon, Inc., priority 2018, dated 2022).

Test system: S. aureus
Assay: Vapor-phase triclosan delivery to model wound (inoculated Petri dishes), bacterial growth after incubation
Type: cell-based
Details: for Bacterial Growth after 37° C. incubation; Exposure to wound treatment system: 3 hr / Bacterial Growth after 37° C. incubation; Exposure to wound treatment system: Additional 17 hr: inoculated
Experimental: The experimental data were obtained with a model air-activated heating elements (7 Hour Hand Warmers, Grabber, Grand Rapids, Mich.) surrounding a model wound represented by inoculated Petri dishes with 5 ml of 45C TSA agar containing about 6 log CFU/ml S. aureus. For testing, from 1 to 8 triclosan strips, each containing 9 mg of triclosan, were positioned on heating elements in proximity to inoculated Petri dishes. The assembly was covered creating an enclosed compartment around the inoculated Petri dishes, with triclosan patches within thusly formed compartment on the heating elements but not in contact with the inoculated Petri dishes. The inoculated Petri dishes were taken out after 3 hr and 17 hour exposure at ambient temperature (of which heating packs provided about 7 hours of heat) and incubated at 37° C. for 24 hr to allow the bacterial colonies, if any, to grow and be evaluated. Controls tested included the same model without any heating elements; heating elements in a system with no triclosan; no heating, no triclosan for confirming inoculation and bacterial growth, no heating no triclosan no inoculation for confirming agar was not contaminated.

Compound: Oc1cc(Cl)ccc1Oc1ccc(Cl)cc1Cl [triclosan]
- Bacterial Growth after 37° C. incubation; Exposure to wound treatment system: 3 hr (0 heating elements (no heat), 1 triclosan patch, 3 hr exposure): Full growth
- Bacterial Growth after 37° C. incubation; Exposure to wound treatment system: Additional 17 hr (0 heating elements (no heat), 1 triclosan patch, 17 hr exposure): Full
- Bacterial Growth after 37° C. incubation; Exposure to wound treatment system: 3 hr (0 heating elements (no heat), 2 triclosan patches, 3 hr exposure): Full growth
- Bacterial Growth after 37° C. incubation; Exposure to wound treatment system: Additional 17 hr (0 heating elements (no heat), 2 triclosan patches, 17 hr exposure): Full
- Bacterial Growth after 37° C. incubation; Exposure to wound treatment system: 3 hr (0 heating elements (no heat), 4 triclosan patches, 3 hr exposure): Partial
- Bacterial Growth after 37° C. incubation; Exposure to wound treatment system: Additional 17 hr (0 heating elements (no heat), 4 triclosan patches, 17 hr exposure): Minimal
- Bacterial Growth after 37° C. incubation; Exposure to wound treatment system: 3 hr (0 heating elements (no heat), 8 triclosan patches, 3 hr exposure): partial growth
- Bacterial Growth after 37° C. incubation; Exposure to wound treatment system: Additional 17 hr (0 heating elements (no heat), 8 triclosan patches, 17 hr exposure): full antibacterial effect and NONE
- Bacterial Growth after 37° C. incubation; Exposure to wound treatment system: 3 hr (4 heating elements, 1 triclosan patch, 3 hr exposure): NONE
- Bacterial Growth after 37° C. incubation; Exposure to wound treatment system: Additional 17 hr (4 heating elements, 1 triclosan patch, 17 hr exposure): NONE
- Bacterial Growth after 37° C. incubation; Exposure to wound treatment system: 3 hr (4 heating elements, 2 triclosan patches, 3 hr exposure (tests 3 and 4)): NONE
- Bacterial Growth after 37° C. incubation; Exposure to wound treatment system: Additional 17 hr (4 heating elements, 2 triclosan patches, 17 hr exposure (tests 3 and 4)): NONE
- Bacterial Growth after 37° C. incubation; Exposure to wound treatment system: 3 hr (4 heating elements, 4 triclosan patches, 3 hr exposure): NONE
- Bacterial Growth after 37° C. incubation; Exposure to wound treatment system: Additional 17 hr (4 heating elements, 4 triclosan patches, 17 hr exposure): NONE
- Bacterial Growth after 37° C. incubation; Exposure to wound treatment system: 3 hr (4 heating elements, 8 triclosan patches (9 mg each), 3 hr exposure): NONE
- Bacterial Growth after 37° C. incubation; Exposure to wound treatment system: Additional 17 hr (4 heating elements, 8 triclosan patches (9 mg each), 17 hr exposure): NONE
- bactericidal effect on S. aureus with vapor transfer of triclosan (in presence of heat elements, 1 strip of triclosan): full bactericidal effect
- inhibition of bacterial growth (tests #1-4, 8: 4 heating elements, from 1 to 8 triclosan patches): full inhibition of bacterial growth
- antibacterial effect (without heat elements, most tests): lack of antibacterial effect
